Experimental data published in ChEMBL document CHEMBL6177985, “Discovery of Novel Cyclic Peptides as SMAD2-SMAD4 Interaction Inhibitors for the Treatment of Hepatic Fibrosis” (J Med Chem, 2025).
The source made the active and inactive calls. The calls are words filed in the database; no cut-off is given here.

What was measured:
LX-2 [1] = assay: Antifibrotic activity against TGF-beta1 stimulated human LX-2 cells assessed as reduction in COL1A1 expression at 100 uM incubated for 24 hrs by Western blotting analysis; type: functional, cell-based
LX-2 [2] = assay: Antifibrotic activity against TGF-beta1 stimulated human LX-2 cells assessed as reduction in alpha-SMA expression at 100 uM incubated for 24 hrs by Western blotting analysis; type: functional, cell-based
Homo sapiens = organism: Homo sapiens; assay: Inhibition of TGF-beta induced his tagged human SMAD2/human SMAD4 interaction at 100 uM incubated for 1 hr followed by anti-His-HRP addition and measured after 1 hr by blocking assay relative to control; conditions: time 2.0 hrs
LX-2 [3] = assay: Inhibition of TGF-beta induced SMAD3 phosphorylation level in human LX-2 cells at 100 uM by Western blot analysis; type: functional, cell-based
LX-2 [4] = assay: Inhibition of TGF-beta induced SMAD1/5/8 phosphorylation level in human LX-2 cells at 100 uM by Western blot analysis; type: functional, cell-based
Mus musculus [5] = assay: Anti-fibrotic activity against CCl4-induced liver fibrosis male C57BL/6J mouse model assessed as effect on SMAD3 phosphorylation in liver at 400 microg/kg, ip measured for 3 weeks by Western blot analysis; type: functional, organism-based; conditions: dose 400.0 µg/kg
Mus musculus [6] = assay: Anti-fibrotic activity against CCl4-induced liver fibrosis male C57BL/6J mouse model assessed as effect on SMAD1/5/8 phosphorylation in liver at 400 microg/kg, ip measured for 3 weeks by Western blot analysis; type: functional, organism-based; conditions: dose 400.0 µg/kg
LX-2 [7] = assay: Downregulation of TGF-beta induced SMAD2 phosphorylation level in human LX-2 cells at 100 uM by Immunoblot analysis; type: functional, cell-based
LX-2 [8] = assay: Downregulation of TGF-beta induced P65 phosphorylation level in human LX-2 cells at 100 uM by Immunoblot analysis; type: functional, cell-based
LX-2 [9] = assay: Downregulation of TGF-beta induced alpha-SMA level in human LX-2 cells at 100 uM by Immunoblot analysis; type: functional, cell-based
LX-2 [10] = assay: Downregulation of TGF-beta induced COL1A1 level in human LX-2 cells at 100 uM by Immunoblot analysis; type: functional, cell-based
[11] = Stability in rat serum measured up to 48 hrs by LC-MS/MS analysis; type: ADME, cell-free

Row | Compound | inhibition (Homo sapiens) [%] | Activity (LX-2 [1]) | Activity (LX-2 [2]) | also measured
1 | H-TRPASWWETS-OH | 43.8 | inactive | inactive | –
2 | H-TRPASFWEAS-OH | 9.3 | inactive | inactive | –
3 | C[C@@H]1NC(=O)[C@@H]2CCCN2C(=O)[C@H](CCCNC(=N)N)NC(=O)[C@H]([C@@H](C)O)NC(=O)[C@H](CO)NC(=O)[C@H]([C@@H](C)O)NC(=O)[C@H](CCC(=O)O)NC(=O)[C@H](Cc2c[nH]c3ccccc23)NC(=O)[C@H](Cc2ccccc2)NC(=O)[C@H](CO)NC1=O | 42.7 | Active; Compound Showed Marginal Reduction Compared To M10 | Active; Compound Showed Marginal Reduction Compared To M10 | –
4 | H-TRPASRWETS-OH | 27.1 | inactive | inactive | –
5 | Ac-TRPASFWETS-OH | 51.9 | inactive | inactive | –
6 | H-TRPASQWETS-OH | 32.4 | inactive | inactive | –
7 | H-TRPASAWETS-OH | 52.7 | Active | Active | –
8 | C[C@@H]1NC(=O)[C@@H]2CCCN2C(=O)[C@H](CCCNC(=N)N)NC(=O)[C@H]([C@@H](C)O)NC(=O)[C@H](CO)NC(=O)[C@H]([C@@H](C)O)NC(=O)[C@H](CCC(=O)O)NC(=O)[C@H](Cc2c[nH]c3ccccc23)NC(=O)[C@H](Cc2ccccc2)NC(=O)[C@@H](CO)NC1=O | 27.9 | Active | Active | –
9 | H-TRPARFWETS-OH | 17.4 | inactive | inactive | –
10 | H-TRPAWFWETS-OH | 21.3 | inactive | inactive | –
11 | C[C@H](NC(=O)[C@@H]1CCCN1C(=O)[C@H](CCCNC(=N)N)NC(=O)[C@@H](N)[C@@H](C)O)C(=O)N[C@H](CO)C(=O)N[C@@H](Cc1ccccc1)C(=O)N[C@@H](Cc1c[nH]c2ccccc12)C(=O)N[C@@H](CCC(=O)O)C(=O)N[C@H](C(=O)N[C@@H](CO)C(=O)O)[C@@H](C)O | 60.5 | Active | Active | –
12 | H-TRPAFFWETS-OH | 34.7 | inactive | inactive | –
13 | H-TRPASFWATS-OH | 11.2 | inactive | inactive | –

Continued, in another order:

Row | inhibition (Homo sapiens) [%] | Compound | Activity (LX-2 [1]) | Activity (LX-2 [2]) | also measured
14 | 42.6 | H-TRPANFWETS-OH | inactive | inactive | –
15 | 46.2 | H-TRPAAFWETS-OH | Active | Active | –
16 | 49.8 | H-TRPASFWETS-NH2 | inactive | inactive | –
17 | 31.3 | H-TRPASNWETS-OH | inactive | inactive | –
18 | 16.3 | H-TRAASFWETS-OH | inactive | inactive | –
19 | 52.5 | C[C@H](NC(=O)[C@@H]1CCCN1C(=O)[C@H](CCCNC(=N)N)NC(=O)[C@@H](N)[C@@H](C)O)C(=O)N[C@@H](CO)C(=O)N[C@@H](Cc1ccccc1)C(=O)N[C@@H](Cc1c[nH]c2ccccc12)C(=O)N[C@@H](CCC(=O)O)C(=O)N[C@H](C(=O)N[C@@H](CO)C(=O)O)[C@@H](C)O | Active | Active | inhibition (LX-2 [3]): inactive; inhibition (LX-2 [4]): inactive; Activity (Mus musculus [5]): inactive; Activity (Mus musculus [6]): inactive
20 | 6.1 | H-TRPADFWETS-OH | inactive | inactive | –
21 | 6.5 | H-TRPASFAETS-OH | inactive | inactive | –
22 | 20.7 | H-TRPASYWETS-OH | inactive | inactive | –
23 | 32.5 | H-TRPAKFWETS-OH | inactive | inactive | –
24 | 35.2 | H-TRPASKWETS-OH | inactive | inactive | –
25 | 31.9 | H-TRPAQFWETS-OH | inactive | inactive | –
26 | 8.6 | H-TAPASFWETS-OH | inactive | inactive | –
27 | 24.2 | H-TRPAEFWETS-OH | inactive | inactive | –
28 | 23.6 | H-TRPASDWETS-OH | inactive | inactive | –
29 | 10.9 | H-TRPASEWETS-OH | inactive | inactive | –
30 | 71.3 | C[C@H](NC(=O)[C@@H]1CCCN1C(=O)[C@H](CCCNC(=N)N)NC(=O)[C@@H](N)[C@@H](C)O)C(=O)N[C@@H](CO)C(=O)N[C@H](Cc1ccccc1)C(=O)N[C@@H](Cc1c[nH]c2ccccc12)C(=O)N[C@@H](CCC(=O)O)C(=O)N[C@H](C(=O)N[C@@H](CO)C(=O)O)[C@@H](C)O | Active | Active | Activity (LX-2 [7]): Active; Activity (LX-2 [8]): Active; Activity (LX-2 [9]): Active; Activity (LX-2 [10]): Active; Stability [11]: Stable
31 | 14.5 | H-TRPASFWETA-OH | inactive | inactive | –
32 | 12.5 | H-ARPASFWETS-OH | inactive | inactive | –
